Assay results: patent publication EP0326331B1, “Substituted quinolines and cinnolines” (Dow AgroSciences LLC, priority 1988, dated 1989)
Where two headings read alike, the source gives them in different places.

Experiments:
Assay type in all cases: in vivo
[1] = system: Erysiphe graminis tritici (powdery mildew); assay: Test 1 greenhouse foliar spray screen, powdery mildew on wheat; conditions: disease control rating, foliar spray on wheat, 400 ppm (+++ at 100 ppm)
[2] = system: Pyricularia oryzae (rice blast); assay: whole plant or invertebrate; conditions: disease control rating, foliar spray on rice, 400 ppm (+++ at 100 ppm)
[3] = system: Puccinia recondita tritici (leaf rust); assay: Test 1 greenhouse foliar spray screen, leaf rust on wheat; conditions: disease control rating, foliar spray on wheat, 400 ppm (+++ at 100 ppm)
[4] = system: Botrytis cinerea (gray mold); assay: Test 1 greenhouse foliar spray screen, gray mold on grape berries; conditions: disease control rating, spray on grape berries, 400 ppm (+++ at 100 ppm)
[5] = system: Pseudoperonospora cubensis (downy mildew); assay: Test 1 greenhouse foliar spray screen, downy mildew on squash; conditions: for DOWN MDEW: disease control rating, foliar spray on squash, 400 ppm (+++ at 100 ppm)
[6] = system: Venturia inaequalis (apple scab); assay: Test 1 greenhouse foliar spray screen, apple scab on apple seedling; conditions: disease control rating, foliar spray on apple seedling, 400 ppm (+++ at 100 ppm)
[7] = system: Septoria tritici (leaf blotch); assay: Test 1 greenhouse foliar spray screen, leaf blotch on wheat; conditions: disease control rating, foliar spray on wheat, 400 ppm (+++ at 100 ppm)
[8] = system: southern armyworm (Spodopetra eridania Cramer); assay: Mite/insect screen, SAW; conditions: Spodoptera eridania, percent mortality, read-out: SAW RESULTS %
Summary of the method: (§1)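 Activity is expressed as percent mortality at the indicated spray concentrations. Plants are sprayed to runoff on upper and lower leaf surfaces with aqueous dilutions of an acetone/alcohol emulsifiable formulation, then dried for one hour.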

[9] = system: Twospotted spider mites (Tetranychus urticae Koch); assay: Mite/insect screen, SM; conditions: percent mortality; for mortality at 200 ppm: Tetranychus urticae, read-out: SM RESULTS %
Summary of the method: as §1

[10] = system: melon aphids (Aphis gossypii Glover); assay: Mite/insect screen, MA; conditions: percent mortality; for mortality at 200 ppm: Aphis gossypii, read-out: MA RESULTS %
Summary of the method: as §1

corn rootworm = assay: Mite/insect screen, CRW; conditions: percent mortality; for mortality at 12 ppm: read-out: CRW RESULTS %
Summary of the method: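 Each compound, taken up in an emulsifier-containing acetone/alcohol mixture and diluted in water to the stated concentrations, was assessed for percent kill following standard exposure times.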

[11] = system: Cercospora beticola (leaf spot); assay: Test 1 greenhouse foliar spray screen, leaf spot on sugar beet; conditions: disease control rating, foliar spray on sugar beet, 400 ppm (+++ at 100 ppm)
[12] = foliar, rate 200 ppm, foliar spray on squash

Compound | POWD MDEW [1] | RICE BLAST [2] | LEAF RUST [3] | GRAY MOLD [4] | DOWN MDEW [5] | APPL SCAB [6] | LEAF BLOT [7] | mortality at 200 ppm ([8]; SAW, SM & MA RATE 200 PPM) [%] | mortality at 200 ppm ([9]; SAW, SM & MA RATE 200 PPM) [%] | mortality at 200 ppm ([10]; SAW, SM & MA RATE 200 PPM) [%] | mortality at 12 ppm (corn rootworm; CRW RATE 12.00 PPM) [%] | activity against downy mildew ([5]; summary statement in the description) | LEAF SPOT [11] | SM RESULTS % ([9]; SAW, SM & MA RATE 200 PPM) [%] | MA RESULTS % ([10]; SAW, SM & MA RATE 200 PPM) [%] | CRW RESULTS % (corn rootworm; CRW RATE 12.00 PPM) [%] | mortality at 200 ppm [8, 12] [%] | mortality at 200 ppm [9, 12] [%] | mortality at 200 ppm [10, 12] [%] | mortality at 12 ppm (corn rootworm; CRW rate 12.00 ppm) [%]
Cc1cccc2c(NCCc3ccccc3)ccnc12 [Example 27, 8-methyl-N-(2-phenylethyl)-4-quinolinamine] | + (20-89% control at 400 ppm) | ++ (90-100% control at 400 ppm) | + (20-89% control at 400 ppm) | - (0-19% control at 400 ppm) | +++ (90-100% control at 100 ppm) | - (0-19% control at 400 ppm) | - (0-19% control at 400 ppm) | 0 | 0 | 0 | 0 | – | – | – | – | – | – | – | – | –
Cc1cc(C)c2nccc(NCCc3ccccc3)c2c1 [Example 28, 6,8-dimethyl-N-(2-phenylethyl)-4-quinolinamine] | + (20-89% control at 400 ppm) | ++ (90-100% control at 400 ppm) | + (20-89% control at 400 ppm) | - (0-19% control at 400 ppm) | +++ (90-100% control at 100 ppm) | - (0-19% control at 400 ppm) | - (0-19% control at 400 ppm) | 0 | 0 | 0 | 0 | – | – | – | – | – | – | – | – | –
Cc1ccc2nccc(NCCc3ccccc3)c2c1 [Example 30, 6-methyl-N-(2-phenylethyl)-4-quinolinamine] | - (0-19% control at 400 ppm) | + (20-89% control at 400 ppm) | + (20-89% control at 400 ppm) | - (0-19% control at 400 ppm) | +++ (90-100% control at 100 ppm) | - (0-19% control at 400 ppm) | - (0-19% control at 400 ppm) | 0 | 0 | 0 | 0 | – | – | – | – | – | – | – | – | –
Clc1ccc2c(NCCc3ccccc3)ccnc2c1 [Example 31, 7-chloro-N-(2-phenylethyl)-4-quinolinamine] | ++ (90-100% control at 400 ppm) | + (20-89% control at 400 ppm) | + (20-89% control at 400 ppm) | - (0-19% control at 400 ppm) | +++ (90-100% control at 100 ppm) | - (0-19% control at 400 ppm) | - (0-19% control at 400 ppm) | 0 | 0 | 0 | 0 | – | – | – | – | – | – | – | – | –
Cc1ccc2c(NCCc3ccccc3)ccnc2c1C [Example 32, 7,8-dimethyl-N-(2-phenylethyl)-4-quinolinamine] | + (20-89% control at 400 ppm) | + (20-89% control at 400 ppm) | - (0-19% control at 400 ppm) | - (0-19% control at 400 ppm) | +++ (90-100% control at 100 ppm) | - (0-19% control at 400 ppm) | - (0-19% control at 400 ppm) | 0 | 0 | 0 | 0 | – | – | – | – | – | – | – | – | –
Clc1cccc2c(NCCc3ccccc3)ccnc12 [Example 33, 8-chloro-N-(2-phenylethyl)-4-quinolinamine] | - (0-19% control at 400 ppm) | + (20-89% control at 400 ppm) | + (20-89% control at 400 ppm) | - (0-19% control at 400 ppm) | +++ (90-100% control at 100 ppm) | - (0-19% control at 400 ppm) | - (0-19% control at 400 ppm) | 0 | 0 | 0 | 0 | particularly excellent activity | – | – | – | – | – | – | – | –
Fc1cccc2c(NCCc3cccc(Cl)c3)ccnc12 [Example 74, N-[2-(3-chlorophenyl)ethyl]-8-fluoro-4-quinolinamine] | + (20-89% control at 400 ppm) | + (20-89% control at 400 ppm) | +++ (90-100% control at 100 ppm) | - (0-19% control at 400 ppm) | +++ (90-100% control at 100 ppm) | - (0-19% control at 400 ppm) | - (0-19% control at 400 ppm) | – | 0 | 0 | 0 | – | +++ (90-100% control at 100 ppm) | 0 | 0 | 0 | – | – | – | –
CC(CNc1ccnc2c(F)cccc12)c1ccc(Cl)cc1 (stereo not shown) [Example 79, N-[2-(4-chlorophenyl)propyl]-8-fluoro-4-quinolinamine] | + (20-89% control at 400 ppm) | ++ (90-100% control at 400 ppm) | ++ (90-100% control at 400 ppm) | - (0-19% control at 400 ppm) | +++ (90-100% control at 100 ppm) | - (0-19% control at 400 ppm) | + (20-89% control at 400 ppm) | – | 0 | 0 | 0 | – | +++ (90-100% control at 100 ppm) | 0 | 0 | 0 | – | – | – | –
c1ccc(CCNc2cc(NCCc3ccccc3)c3ccccc3n2)cc1 [Example 181, N,N'-bis(2-phenylethyl)-2,4-quinolinediamine] | + (20-89% control at 400 ppm) | + (20-89% control at 400 ppm) | + (20-89% control at 400 ppm) | - (0-19% control at 400 ppm) | +++ (90-100% control at 100 ppm) | - (0-19% control at 400 ppm) | - (0-19% control at 400 ppm) | – | – | – | – | – | – | – | – | – | 0 | 0 | 0 | 0
